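Compound exposure: 48 hours, 5 concentrations, 96-well plates. Abbreviation: GI50, concentration required for 50% inhibition of growth. TGI denotes the concentration required for complete inhibition of growth.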
Tests used:
Experiment in all cases: NCI tumour cell line growth inhibition, 48 h
HOP-62 NSCLC = test system: HOP-62 NSCLC
HOP-92 NSCLC = test system: HOP-92 NSCLC
NCI-H226 lung = test system: NCI-H226 lung
NCI-H23 lung = test system: NCI-H23 lung
OVCAR-5 ovarian = test system: OVCAR-5 ovarian
SF-539 CNS = test system: SF-539 CNS
SK-OV-3 ovarian = test system: SK-OV-3 ovarian
SR leukemia = test system: SR leukemia
UO-31 renal = test system: UO-31 renal
SN12C renal = test system: SN12C renal

SMILES	TGI (HOP-62 NSCLC)	TGI (HOP-92 NSCLC)	TGI (NCI-H226 lung)	TGI (NCI-H23 lung)	TGI (OVCAR-5 ovarian)	TGI (SF-539 CNS)	TGI (SK-OV-3 ovarian)	TGI (SR leukemia)	TGI (UO-31 renal)	TGI (SN12C renal)	GI50 (HOP-62 NSCLC)	GI50 (HOP-92 NSCLC)	GI50 (NCI-H226 lung)	GI50 (NCI-H23 lung)	GI50 (OVCAR-5 ovarian)	GI50 (SF-539 CNS)	GI50 (SK-OV-3 ovarian)	GI50 (SN12C renal)	GI50 (SR leukemia)	GI50 (UO-31 renal)
O=C(Cl)c1cc([N+](=O)[O-])cc([N+](=O)[O-])c1	> 100 µM	> 100 µM	> 100 µM	> 100 µM	> 100 µM	> 100 µM	> 100 µM	> 100 µM	> 100 µM											
CN(C)CCCN1c2ccc3ccccc3c2Sc2cccc(Cl)c21	9.32 µM	9.1 µM	18.7 µM	35.4 µM	17.7 µM	20.7 µM	26.4 µM		12 µM	20.3 µM										
CC(C)OP(=O)(OC(C)C)c1ncn(-c2ccc([N+](=O)[O-])cc2)n1	> 100 µM	> 100 µM	> 100 µM	> 100 µM	> 100 µM	> 100 µM	> 100 µM	> 100 µM	> 100 µM	> 100 µM										
COc1nc(NC2OCC(OC(C)=O)C(OC(C)=O)C2OC(C)=O)c(N=C(C)C(C)=O)c(=O)n1C (stereo not drawn)		> 100 µM	> 100 µM	> 100 µM	> 100 µM	> 100 µM		> 100 µM	> 100 µM	> 100 µM										
Nc1cc(N)c2nc(-c3ccccc3)c(Sc3ccc(F)cc3)nc2c1	34.3 µM	54.8 µM	46.4 µM	39.4 µM	46.1 µM	40 µM	31.6 µM	> 100 µM	> 100 µM	35.4 µM	16.6 µM	22.9 µM	19 µM	19 µM	19 µM	21.3 µM	15.7 µM	17.6 µM	35.2 µM	32 µM
COc1cccc(C(=O)C(O)c2cccc(OC)c2OC)c1OC (stereo not drawn)	> 100 µM	> 100 µM	> 100 µM	> 100 µM	> 100 µM	> 100 µM	> 100 µM	> 100 µM	> 100 µM	> 100 µM										
O=C(CCc1nnc2s/c(=C\c3ccc(Cl)cc3Cl)c(=O)n12)Nc1cc(Cl)c(Cl)cc1Cl	> 100 µM	> 100 µM	> 100 µM	> 100 µM	> 100 µM	> 100 µM	> 100 µM	> 100 µM	> 100 µM	> 100 µM	> 100 µM		> 100 µM	> 100 µM	> 100 µM	> 100 µM	> 100 µM	> 100 µM	> 100 µM	> 100 µM
CN1C(=N\S(=O)(=O)c2ccc(Cl)cc2)/C(=N/N=P(c2ccccc2)(c2ccccc2)c2ccccc2)c2ccccc21			> 100 µM	> 100 µM	> 100 µM	> 100 µM	> 100 µM	> 100 µM	> 100 µM	> 100 µM										

From PubChem BioAssay (NCI)
